In the supplement of paper PMC10307832:

Assays:
Test in all cases: relative viability (nuclei count vs DMSO), 5 days (fraction); higher = more cells survive
Linsitinib + Foretinib = compound: C[C@]1(O)C[C@@H](c2nc(-c3ccc4ccc(-c5ccccc5)nc4c3)c3c(N)nccn32)C1 [Linsitinib] + COc1cc2c(Oc3ccc(NC(=O)C4(C(=O)Nc5ccc(F)cc5)CC4)cc3F)ccnc2cc1OCCCN1CCOCC1 [Foretinib] (partner 0.25 µM)
Outline: (§1)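 Medians of duplicate plates are given as relative viability. That measure is the nuclei count in treated wells divided by the count in vehicle wells. Counts were taken on 4× images of lung cancer cell lines in 1536-well plates, 5 days after pin-tool dosing the day after seeding with one drug alone or a fixed anchor-drug dose plus five library-drug doses (not always all listed) in √10 steps.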

Linsitinib + AZD7762 = compound: C[C@]1(O)C[C@@H](c2nc(-c3ccc4ccc(-c5ccccc5)nc4c3)c3c(N)nccn32)C1 [Linsitinib] + NC(=O)Nc1cc(-c2cccc(F)c2)sc1C(=O)N[C@H]1CCCNC1 [AZD7762] (partner 0.2 µM)
Outline: as §1

Ispinesib + Dasatinib = compound: Cc1ccc(C(=O)N(CCCN)[C@@H](c2nc3cc(Cl)ccc3c(=O)n2Cc2ccccc2)C(C)C)cc1 [Ispinesib] + Cc1nc(Nc2ncc(C(=O)Nc3c(C)cccc3Cl)s2)cc(N2CCN(CCO)CC2)n1 [Dasatinib] (partner 0.075 µM)
Outline: as §1

Ispinesib + AZD7762 = compound: Cc1ccc(C(=O)N(CCCN)[C@@H](c2nc3cc(Cl)ccc3c(=O)n2Cc2ccccc2)C(C)C)cc1 [Ispinesib] + NC(=O)Nc1cc(-c2cccc(F)c2)sc1C(=O)N[C@H]1CCCNC1 [AZD7762] (partner 0.2 µM)
Outline: as §1

Cell Line | relative viability (Linsitinib + Foretinib; first compound 0.01 µM) | relative viability (Linsitinib + Foretinib; first compound 0.03162 µM) | relative viability (Linsitinib + Foretinib; first compound 0.1 µM) | relative viability (Linsitinib + Foretinib; first compound 0.3162 µM) | relative viability (Linsitinib + Foretinib; first compound 1 µM) | relative viability (Linsitinib + AZD7762; first compound 0.01 µM) | relative viability (Linsitinib + AZD7762; first compound 0.03162 µM) | relative viability (Linsitinib + AZD7762; first compound 0.1 µM) | relative viability (Linsitinib + AZD7762; first compound 0.3162 µM) | relative viability (Linsitinib + AZD7762; first compound 1 µM) | relative viability (Ispinesib + Dasatinib; first compound 0.001 µM) | relative viability (Ispinesib + Dasatinib; first compound 0.003162 µM) | relative viability (Ispinesib + Dasatinib; first compound 0.01 µM) | relative viability (Ispinesib + Dasatinib; first compound 0.03162 µM) | relative viability (Ispinesib + Dasatinib; first compound 0.1 µM) | relative viability (Ispinesib + AZD7762; first compound 0.001 µM) | relative viability (Ispinesib + AZD7762; first compound 0.003162 µM) | relative viability (Ispinesib + AZD7762; first compound 0.01 µM) | relative viability (Ispinesib + AZD7762; first compound 0.03162 µM) | relative viability (Ispinesib + AZD7762; first compound 0.1 µM)
H3255 | 0.796 | 0.907 | 0.944 | 0.682 | 0.976 | 0.7 | 0.884 | 0.813 | 0.69 | 0.806 | 0.316 | 0.419 | 0.357 | 0.307 | 0.244 | 0.94 | 1.06 | 0.89 | 0.623 | 0.311
LOU-NH91 | 0.953 | 0.939 | 0.879 | 0.926 | 0.842 | 0.763 | 0.701 | 0.742 | 0.693 | 0.58 | 0.591 | 0.608 | 0.592 | 0.519 | 0.206 | 0.807 | 0.854 | 0.877 | 0.432 | 0.297
NCI-H1666 | 0.94 | 1.05 | 0.933 | 0.758 | 0.852 | 0.704 | 0.834 | 0.828 | 0.645 | 0.597 | 0.864 | 0.894 | 0.776 | 0.594 | 0.419 | 0.872 | 0.922 | 0.898 | 0.699 | 0.641
NCI-H838 | 0.996 | 0.855 | 0.894 |  | 0.716 | 0.933 | 0.85 | 0.903 | 0.713 | 0.77 | 0.325 | 0.335 | 0.29 | 0.242 | 0.182 | 1.01 | 0.804 | 1.03 | 0.941 | 0.714
